# What was measured:
# Assay type in all cases: biochemical
# [1] = target: T1, human Yes1 enzyme (Homo sapiens, UniProt P07947); experiment: Yes1 enzyme inhibitory activity (time-resolved fluorometry, biotinylated peptide phosphorylation); conditions: read-out: YES_IC50
# T1 construct: made in house
# Method in brief: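 Inhibition was expressed against a compound-free control to give IC50, using TR-FRET read-out (Eu-cryptate anti-pTyr antibody, streptavidin-XL665).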
# [2] = target: T2, human Src enzyme (Homo sapiens, UniProt P12931); experiment: Src enzyme inhibitory activity (time-resolved fluorometry, biotinylated peptide phosphorylation); conditions: read-out: SRC_IC50
# T2 construct: purchased Carna Biosciences, Inc. 08-173
# T2 sequence (P12931 whole entry): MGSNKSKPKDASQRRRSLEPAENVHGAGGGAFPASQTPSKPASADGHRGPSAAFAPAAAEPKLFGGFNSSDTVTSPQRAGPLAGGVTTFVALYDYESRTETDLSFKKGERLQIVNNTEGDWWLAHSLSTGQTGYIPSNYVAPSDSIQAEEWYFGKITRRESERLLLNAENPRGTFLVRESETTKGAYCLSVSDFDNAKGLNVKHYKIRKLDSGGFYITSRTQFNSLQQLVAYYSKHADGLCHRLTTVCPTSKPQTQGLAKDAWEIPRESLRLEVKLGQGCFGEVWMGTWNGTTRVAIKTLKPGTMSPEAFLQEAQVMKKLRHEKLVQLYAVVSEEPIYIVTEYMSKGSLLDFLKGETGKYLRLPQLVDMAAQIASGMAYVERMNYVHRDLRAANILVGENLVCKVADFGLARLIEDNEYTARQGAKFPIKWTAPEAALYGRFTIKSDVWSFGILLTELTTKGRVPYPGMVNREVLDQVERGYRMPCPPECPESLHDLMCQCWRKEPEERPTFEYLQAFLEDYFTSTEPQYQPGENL
# Method in brief: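 Compounds were tested for blocking tyrosine phosphorylation of a biotinylated peptide substrate by recombinant human Src. Phosphorylated product was quantified by time-resolved fluorometry using europium cryptate and XL665 conjugates, and IC50 was calculated against the compound-free control.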
# [3] = target: T3, human Lck enzyme (Homo sapiens, UniProt P06239); experiment: Lck enzyme inhibitory activity (time-resolved fluorometry, biotinylated peptide phosphorylation); conditions: read-out: LCK_IC50
# T3 construct: purchased Carna Biosciences, Inc. 08-170
# T3 sequence (P06239 whole entry): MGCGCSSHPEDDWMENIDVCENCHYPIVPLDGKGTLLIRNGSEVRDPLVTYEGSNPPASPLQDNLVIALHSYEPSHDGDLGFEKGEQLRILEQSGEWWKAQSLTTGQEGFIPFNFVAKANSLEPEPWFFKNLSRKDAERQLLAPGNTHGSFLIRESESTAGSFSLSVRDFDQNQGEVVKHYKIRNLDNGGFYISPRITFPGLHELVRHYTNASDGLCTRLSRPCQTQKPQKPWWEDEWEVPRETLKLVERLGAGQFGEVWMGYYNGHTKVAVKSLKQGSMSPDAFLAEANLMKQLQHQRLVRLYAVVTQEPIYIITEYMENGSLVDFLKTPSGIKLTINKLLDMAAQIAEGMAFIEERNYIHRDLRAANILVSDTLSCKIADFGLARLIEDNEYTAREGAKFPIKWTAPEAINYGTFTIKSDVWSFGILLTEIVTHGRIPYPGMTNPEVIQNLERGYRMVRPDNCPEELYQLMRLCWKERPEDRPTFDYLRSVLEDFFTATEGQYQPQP
# Method in brief: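 Readout pairs a europium cryptate-labelled anti-phosphotyrosine antibody with XL665-streptavidin, measured by time-resolved fluorescence. IC50 derived from percent inhibition against untreated controls.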
# T1 sequence (P07947 whole entry): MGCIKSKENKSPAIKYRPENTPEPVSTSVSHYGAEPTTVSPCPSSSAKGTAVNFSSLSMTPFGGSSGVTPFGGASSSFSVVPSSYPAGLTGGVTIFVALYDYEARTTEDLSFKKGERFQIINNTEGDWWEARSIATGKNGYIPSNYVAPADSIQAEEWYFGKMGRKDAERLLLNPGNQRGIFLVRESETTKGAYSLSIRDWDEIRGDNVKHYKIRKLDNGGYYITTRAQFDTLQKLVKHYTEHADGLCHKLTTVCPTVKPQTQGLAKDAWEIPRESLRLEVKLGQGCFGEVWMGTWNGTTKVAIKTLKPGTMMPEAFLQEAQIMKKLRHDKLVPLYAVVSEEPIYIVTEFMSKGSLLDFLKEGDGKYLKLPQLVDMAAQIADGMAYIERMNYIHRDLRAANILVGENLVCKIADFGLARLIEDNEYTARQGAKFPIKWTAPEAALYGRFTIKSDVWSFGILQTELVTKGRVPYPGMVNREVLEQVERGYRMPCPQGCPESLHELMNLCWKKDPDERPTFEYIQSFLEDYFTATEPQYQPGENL
Compound,IC50 [1] [nM],IC50 [2] [nM],IC50 [3] [nM]
"Cc1cc2cc(C(=O)c3cnn(-c4c(C)cc(Oc5ccccc5F)cc4F)c3N)[nH]c2cc1NS(=O)(=O)CC(=O)NC(C)C [Example 5-1-089, 2-[[2-[5-amino-1-[2-fluoro-4-(2-fluorophenoxy)-6-methylphenyl]pyrazole-4-carbonyl]-5-methyl-1H-indol-6-yl]sulfamoyl]-N-propan-2-ylacetamide]",6.2,77,8.9
"Cc1cc2cc(C(=O)c3cnn(-c4cnc(Oc5ccccc5F)cc4C)c3N)[nH]c2cc1C1CCN(S(C)(=O)=O)CC1 [Example 5-1-090, [5-amino-1-[6-(2-fluorophenoxy)-4-methylpyridin-3-yl]pyrazol-4-yl]-[5-methyl-6-(1-methylsulfonylpiperidin-4-yl)-1H-indol-2-yl] methanone]",2.6,25,3.8
"Cc1cc2cc(C(=O)c3cnn(-c4cnc(Oc5c(F)cccc5F)cc4C)c3N)[nH]c2cc1C1CCN(S(C)(=O)=O)CC1 [Example 5-1-091, [5-amino-1-[6-(2,6-difluorophenoxy)-4-methylpyridin-3-yl]pyrazol-4-yl]-[5-methyl-6-(1-methylsulfonylpiperidin-4-yl)-1H-indol-2-yl] methanone]",3.2,24,3.7
"Cc1cc2cc(C(=O)c3cnn(-c4ccc(Oc5c(F)cccc5F)cc4C)c3N)[nH]c2cc1NS(C)(=O)=O [Example 5-1-092, N-[2-[5-amino-1-[4-(2,6-difluorophenoxy)-2-methylphenyl]pyrazole-4-carbonyl]-5-methyl-1H-indol-6-yl]methanesulfonamide]",0.91,16,2.8
"Cc1cc(Oc2ccccc2F)ccc1-n1ncc(C(=O)c2cc3cc(N4CCOCC4)c(N4CCN(S(C)(=O)=O)CC4)cc3[nH]2)c1N [Example 5-1-093, [5-amino-1-[4-(2-fluorophenoxy)-2-methylphenyl]pyrazol-4-yl]-[6-(4-methylsulfonylpiperazin-1-yl)-5-morpholin-4-yl-1H-indol-2-yl]methanone]",1.8,11,3.7
"Cc1cc(Oc2ccccc2F)ccc1-n1ncc(C(=O)c2cc3cc(N4CCOCC4)c(N4CCOCC4)cc3[nH]2)c1N [Example 5-1-094, [5-amino-1-[4-(2-fluorophenoxy)-2-methylphenyl]pyrazol-4-yl]-(5,6-dimorpholin-4-yl-1H-indol-2-yl)methanone]",2.9,19,4.1
"Cc1cc(Oc2ccccc2F)ccc1-n1ncc(C(=O)c2cc3cc(F)c(N4CCOC4=O)cc3[nH]2)c1N [Example 5-1-095, 3-[2-[5-amino-1-[4-(2-fluorophenoxy)-2-methylphenyl]pyrazole-4-carbonyl]-5-fluoro-1H-indol-6-yl]-1,3-oxazolidin-2-one]",0.87,4.5,1.5
"Cc1cc2cc(C(=O)c3cnn(-c4ccc(Oc5c(F)cccc5Cl)cc4C)c3N)[nH]c2cc1NS(C)(=O)=O [Example 5-1-096, N-[2-[5-amino-1-[4-(2-chloro-6-fluorophenoxy)-2-methylphenyl]pyrazole-4-carbonyl]-5-methyl-1H-indol-6-yl] methanesulfonamide]",1.7,33,2.7
"Cc1cc(Oc2c(F)cccc2F)ncc1-n1ncc(C(=O)c2cc3cc(F)c(N4CCOC4=O)cc3[nH]2)c1N [Example 5-1-097, 3-[2-[5-amino-1-[6-(2,6-difluorophenoxy)-4-methylpyridin-3-yl]pyrazole-4-carbonyl]-5-fluoro-1H-indol-6-yl]-1,3-oxazolidin-2-one]",1.1,8.7,1.3
"Cc1cc(Oc2c(F)cccc2F)ncc1-n1ncc(C(=O)c2cc3cc(F)c(N4CCCC4=O)cc3[nH]2)c1N [Example 5-1-098, 1-[2-[5-amino-1-[6-(2,6-difluorophenoxy)-4-methylpyridin-3-yl]pyrazole-4-carbonyl]-5-fluoro-1H-indol-6-yl]pyrrolidin-2-one]",1.9,15,1.4
Cc1cc(Oc2c(F)cccc2F)ncc1-n1ncc(C(=O)c2cc3cc(F)c(N4CCN(S(C)(=O)=O)CC4)cc3[nH]2)c1N [Example 5-1-099],2.1,11,2.2
"Cc1cc(Oc2c(F)cccc2F)ncc1-n1ncc(C(=O)c2cc3cc(F)c(N4CCOCC4)cc3[nH]2)c1N [Example 5-1-100, [5-amino-1-[6-(2,6-difluorophenoxy)-4-methylpyridin-3-yl]pyrazol-4-yl]-(5-fluoro-6-morpholin-4-yl-1H-indol-2-yl)methanone]",1.6,8.7,1.3
"Cc1cc(Oc2c(F)cccc2F)ncc1-n1ncc(C(=O)c2cc3cc(F)c(-n4c(C)cc(=O)[nH]c4=O)cc3[nH]2)c1N [Example 5-1-101, 1-[2-[5-amino-1-[6-(2,6-difluorophenoxy)-4-methylpyridin-3-yl]pyrazole-4-carbonyl]-5-fluoro-1H-indol-6-yl]-6-methylpyrimidine-2,4-dione]",1.9,25,1.1
"Cc1cc(Oc2c(F)cccc2F)ncc1-n1ncc(C(=O)c2cc3cc(F)c(NC4CN(S(C)(=O)=O)C4)cc3[nH]2)c1N [Example 5-1-102, [5-amino-1-[6-(2,6-difluorophenoxy)-4-methylpyridin-3-yl]pyrazol-4-yl]-[5-fluoro-6-[(1-methylsulfonylazetidin-3-yl)amino]-1H-indol-2-yl]methanone]",0.77,5,1.3
"Cc1cc(Oc2ccccc2F)ccc1-n1ncc(C(=O)c2cc3cc(F)c(N4CCCC4=O)cc3[nH]2)c1N [Example 5-1-103, 1-[2-[5-amino-1-[4-(2-fluorophenoxy)-2-methylphenyl]pyrazole-4-carbonyl]-5-fluoro-1H-indol-6-yl]pyrrolidin-2-one]",0.38,5.2,1.1
"Cc1cc(Oc2ccccc2F)ccc1-n1ncc(C(=O)c2cc3cc(F)c(-n4c(C)cc(=O)[nH]c4=O)cc3[nH]2)c1N [Example 5-1-104, 1-[2-[5-amino-1-[4-(2-fluorophenoxy)-2-methylphenyl]pyrazole-4-carbonyl]-5-fluoro-1H-indol-6-yl]-6-methylpyrimidine-2,4-dione]",0.63,9.7,1.1
"Cc1cc(Oc2ccccc2F)ccc1-n1ncc(C(=O)c2cc3cc(N4CCOCC4)c(N4CCCC4=O)cc3[nH]2)c1N [Example 5-1-105, 1-[2-[5-amino-1-[4-(2-fluorophenoxy)-2-methylphenyl]pyrazole-4-carbonyl]-5-morpholin-4-yl-1H-indol-6-yl]pyrrolidin-2-one]",0.77,3.6,1.6
"Cc1cc(Oc2ccccc2F)ccc1-n1ncc(C(=O)c2cc3cc(N4CCOCC4)c(N4CCOC4=O)cc3[nH]2)c1N [Example 5-1-106, 3-[2-[5-amino-1-[4-(2-fluorophenoxy)-2-methylphenyl]pyrazole-4-carbonyl]-5-morpholin-4-yl-1H-indol-6-yl]-1,3-oxazolidin-2-one]",0.42,2,1.1
"Cc1cc2cc(C(=O)c3cnn(-c4ccc(Oc5cc(F)ccc5F)cc4C)c3N)[nH]c2cc1NS(C)(=O)=O [Example 5-1-107, N-[2-[5-amino-1-[4-(2,5-difluorophenoxy)-2-methylphenyl]pyrazole-4-carbonyl]-5-methyl-1H-indol-6-yl]methanesulfonamide]",1.5,96,7.9
"Cc1cc2cc(C(=O)c3cnn(-c4ccc(Oc5ccccc5)cc4C)c3N)[nH]c2cc1NS(C)(=O)=O [Example 5-1-108, N-[2-[5-amino-1-(2-methyl-4-phenoxyphenyl)pyrazole-4-carbonyl]-5-methyl-1H-indol-6-yl] methanesulfonamide]",0.57,21,1.7
"Cc1cc2cc(C(=O)c3cnn(-c4cnc(Oc5ccccc5)cc4C)c3N)[nH]c2cc1NS(C)(=O)=O [Example 5-1-109, N-[2-[5-amino-1-(4-methyl-6-phenoxypyridin-3-yl)pyrazole-4-carbonyl]-5-methyl-1H-indol-6-yl]methanesulfonamide]",0.7,37,1.4
"Cc1cc2cc(C(=O)c3cnn(-c4c(C)cc(Oc5ccccc5F)cc4F)c3N)[nH]c2cc1NS(=O)(=O)CC(=O)N1CCCC1 [Example 5-1-110, N-[2-[5-amino-1-[2-fluoro-4-(2-fluorophenoxy)-6-methylphenyl]pyrazole-4-carbonyl]-5-methyl-1H-indol-6-yl]-2-oxo-2-pyrrolidin-1-ylethanesulfonamide]",7.7,68,10
"Cc1cc2cc(C(=O)c3cnn(-c4c(C)cc(Oc5ccccc5F)cc4F)c3N)[nH]c2cc1C1CCN(S(C)(=O)=O)CC1 [Example 5-1-111, [5-amino-1-[2-fluoro-4-(2-fluorophenoxy)-6-methylphenyl]pyrazol-4-yl]-[5-methyl-6-(1-methylsulfonylpiperidin-4-yl)-1H-indol-2-yl] methanone]",14,46,14
"Cc1cc(Oc2c(F)cccc2F)ncc1-n1ncc(C(=O)c2cc3cc(F)c(N4CCC(N5CCOCC5)CC4)cc3[nH]2)c1N [Example 5-1-112, [5-amino-1-[6-(2,6-difluorophenoxy)-4-methylpyridin-3-yl]pyrazol-4-yl]-[5-fluoro-6-(4-morpholin-4-ylpiperidin-1-yl)-1H-indol-2-yl] methanone]",0.81,26,1.7

# — US10479780B2, “Aminopyrazole derivatives” (Chugai Seiyaku Kabushiki Kaisha, priority 2015, dated 2019)
